Experiment [1] concerns human gastric cancer MKN1 cells. Briefly: Assay of cell proliferation (CellTiter-Glo). In kind it is cell-based. The conditions noted are these: Homo sapiens, MKN-1, 144 h; MNK1, 6 days; read-out: MKN1 IC50 of cell proliferation inhibitory activity. As to the method:
(§1) Human ovarian cancer OVCAR3 cells were inoculated at 2000 cells/well in a 96-well plate and cultured in RPMI 1640 medium containing 20% FBS at 37 °C and 5% CO2 overnight in an incubator. The next day, the compounds were subjected to a three-fold gradient dilution in DMSO from a peak concentration of 2 mM to give nine concentrations. Then, the compounds were diluted 3:200 in growth medium, and finally diluted 1:3 in the cell culture supernatant to give a culture supernatant containing 0.5% DMSO, with the compounds treatment concentrations ranging from 10 µM to 0.1 nM. The cells and the compounds were incubated at 37 °C and 5% CO2 for 6 days. Then, cell proliferation assay was performed using the CellTiter-Glo (manufacturer: Promega, Cat. No. G9242), and luminescence signals were read using a multifunctional microplate reader (model: Synergy H1, manufacturer: BiotTek). IC50 values were calculated by fitting of the concentration-response curves with a four-parameter analysis method using GraphPad Prism software.
(§2) The cell proliferation assays of human colon cancer HCT-116 cells, human breast cancer MCF-7 cells, human breast cancer HCC1806 cells, human acute myeloid leukemia MV-4-11 cells, and human gastric cancer MKN1 cells were performed according to the same method, with different inoculation densities set according to different cell growth characteristics.

The subject of experiment [2] is human acute myeloid leukemia MV-4-11 cells. Briefly: Assay of cell proliferation (CellTiter-Glo). It is filed as cell-based. The conditions noted are these: MV4-11, 144 h, 6 days, read-out: MV-4-11 IC50 of cell proliferation inhibitory activity. As to the method: as §1, §2
Experiment [3] concerns human breast cancer HCC1806 cells. Briefly: Assay of cell proliferation (CellTiter-Glo). It is filed as cell-based. The conditions noted are these: Homo sapiens, 144 h, 6 days, read-out: HCC1806 IC50 of cell proliferation inhibitory activity. As to the method:
as §1, §2

In a further experiment the target is CDK2/cyclin E (Homo sapiens, UniProt P24941). Briefly: Assay of kinase activity (ADP-Glo). In kind it is biochemical. Conditions: kinase inhibitory activity, read-out: CDK2/E1 IC50. As to the method:
(§3) CDK/cyclin catalyzes the phosphorylation of a substrate, which concomitantly consumes ATP and produces ADP. The inhibition rate (%) in the presence of a small molecule inhibitor was assessed by measuring the amount of ADP generated in the reaction. The assay compounds were thoroughly mixed by vortexing and then diluted in DMSO to 100× the assay concentration. […] A 2× kinase solution was prepared using a 1× kinase reaction buffer (50 mM Hepes, 10 mM MgCl2, 0.01% Brij35, 2 mM DTT). 2 µL of the kinase solution was transferred to the 384-well assay plate, and the plate was centrifuged at 1000 rpm for 60 seconds in a microplate centrifuge. The plate was incubated at 25 °C in a biochemical incubator for 10 minutes. A 2x mixture of substrate and ATP was prepared in the kinase reaction buffer. Then, 2 µL of the mixture of substrate and ATP was added to the 384-well assay plate. The plate was centrifuged at 1000 rpm for 60 seconds in a microplate centrifuge, and incubated at 25 °C in a biochemical incubator for 60 minutes. 4 µL of ADP-Glo Reagent (Cat. No. V9103, manufacturer: Promega) incubated at 25 °C in a biochemical incubator was added to each well of the 384-well assay plate. The plate was centrifuged at 1000 rpm for 60 seconds in a microplate centrifuge, and incubated at 25 °C in a biochemical incubator for 40 minutes. 8 µL of Detection Reagent incubated at 25 °C in a biochemical incubator was added to each well of the 384-well assay plate. The plate was centrifuged at 1000 rpm for 60 seconds in a microplate centrifuge, and incubated at 25 °C in a biochemical incubator for 40 minutes. Finally, luminescence signals were read using a multifunctional microplate reader (model: PHERAstar FSX, manufacturer: BMG). IC50 values were calculated by nonlinear fitting of the concentration-response curves using GraphPad Prism software.

Another experiment concerns the target CDK4/cyclin D1 (Homo sapiens, UniProt P11802). Briefly: Assay of kinase activity (ADP-Glo). It is filed as biochemical. Conditions: kinase inhibitory activity. As to the method:
as §3

Another experiment addresses CDK6/cyclin D3 (Homo sapiens, UniProt Q00534). Briefly: Assay of kinase activity (ADP-Glo). It is filed as biochemical. Conditions: kinase inhibitory activity. As to the method:
(§4) CDK/cyclin catalyzes the phosphorylation of a substrate, which concomitantly consumes ATP and produces ADP. The inhibition rate (%) in the presence of a small molecule inhibitor was assessed by measuring the amount of ADP generated in the reaction. The assay compounds were thoroughly mixed by vortexing and then diluted in DMSO to 100× the assay concentration. 40 nL of a compound was transferred to a 384-well assay plate using a nanoliter pipetting system (ECHO® 655 SYSTEM). A 2× kinase solution was prepared using a 1× kinase reaction buffer (50 mM Hepes, 10 mM MgCl2, 0.01% Brij35, 2 mM DTT). 2 µL of the kinase solution was transferred to the 384-well assay plate, and the plate was centrifuged at 1000 rpm for 60 seconds in a microplate centrifuge. The plate was incubated at 25 °C in a biochemical incubator for 10 minutes. A 2x mixture of substrate and ATP was prepared in the kinase reaction buffer. Then, 2 µL of the mixture of substrate and ATP was added to the 384-well assay plate. The plate was centrifuged at 1000 rpm for 60 seconds in a microplate centrifuge, and incubated at 25 °C in a biochemical incubator for 60 minutes. 4 µL of ADP-Glo Reagent (Cat. No. V9103, manufacturer: Promega) incubated at 25 °C in a biochemical incubator was added to each well of the 384-well assay plate. The plate was centrifuged at 1000 rpm for 60 seconds in a microplate centrifuge, and incubated at 25 °C in a biochemical incubator for 40 minutes. 8 µL of Detection Reagent incubated at 25 °C in a biochemical incubator was added to each well of the 384-well assay plate. The plate was centrifuged at 1000 rpm for 60 seconds in a microplate centrifuge, and incubated at 25 °C in a biochemical incubator for 40 minutes. Finally, luminescence signals were read using a multifunctional microplate reader (model: PHERAstar FSX, manufacturer: BMG). IC50 values were calculated by nonlinear fitting of the concentration-response curves using GraphPad Prism software.

In a further experiment the target is CDK9/cyclin T1 (Homo sapiens, UniProt P50750). Briefly: Assay of kinase activity (ADP-Glo). Conditions: kinase inhibitory activity. It is filed as biochemical. As to the method:
as §4

The subject of experiment [4] is Human ovarian cancer OVCAR3 cells. Briefly: Assay of cell proliferation (CellTiter-Glo). Conditions: Homo sapiens, OVCAR-3, 144 h, 6 days, read-out: OVCAR3 IC50 of cell proliferation inhibitory activity. It is filed as cell-based. As to the method: as §1

Each structure is given as a SMILES string.

Sequence of CDK9/cyclin T1 (P50750 whole entry, species assumed): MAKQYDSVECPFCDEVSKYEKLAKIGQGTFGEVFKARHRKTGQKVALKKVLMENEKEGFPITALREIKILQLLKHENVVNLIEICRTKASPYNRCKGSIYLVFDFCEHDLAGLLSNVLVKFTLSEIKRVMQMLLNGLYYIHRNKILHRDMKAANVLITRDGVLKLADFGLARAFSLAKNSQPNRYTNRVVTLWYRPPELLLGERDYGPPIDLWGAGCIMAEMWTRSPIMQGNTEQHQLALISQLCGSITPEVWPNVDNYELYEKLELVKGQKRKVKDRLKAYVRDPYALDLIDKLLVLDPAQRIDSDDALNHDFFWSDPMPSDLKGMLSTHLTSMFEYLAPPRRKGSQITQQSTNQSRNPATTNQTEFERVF
Sequence of CDK9/cyclin T1 (O60563 whole entry partner, species assumed): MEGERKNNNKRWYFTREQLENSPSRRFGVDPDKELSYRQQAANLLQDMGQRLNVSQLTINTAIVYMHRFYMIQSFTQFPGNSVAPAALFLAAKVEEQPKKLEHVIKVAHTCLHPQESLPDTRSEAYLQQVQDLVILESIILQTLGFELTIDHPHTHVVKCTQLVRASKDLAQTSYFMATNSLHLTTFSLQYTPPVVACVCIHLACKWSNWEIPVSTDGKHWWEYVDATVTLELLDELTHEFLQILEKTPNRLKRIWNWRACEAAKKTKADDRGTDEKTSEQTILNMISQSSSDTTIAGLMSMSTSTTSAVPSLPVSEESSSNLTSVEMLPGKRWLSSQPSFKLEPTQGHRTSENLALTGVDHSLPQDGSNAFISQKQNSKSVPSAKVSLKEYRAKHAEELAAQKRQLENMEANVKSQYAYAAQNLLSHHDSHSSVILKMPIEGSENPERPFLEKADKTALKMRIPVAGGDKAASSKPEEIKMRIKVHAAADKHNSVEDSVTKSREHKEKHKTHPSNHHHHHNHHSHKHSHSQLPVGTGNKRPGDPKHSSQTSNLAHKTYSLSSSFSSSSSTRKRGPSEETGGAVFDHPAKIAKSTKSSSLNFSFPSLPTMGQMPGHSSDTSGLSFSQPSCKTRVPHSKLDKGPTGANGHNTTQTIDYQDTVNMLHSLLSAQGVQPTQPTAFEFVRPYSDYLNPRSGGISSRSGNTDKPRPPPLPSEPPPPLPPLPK
Sequence of CDK4/cyclin D1 (P11802 whole entry, species assumed): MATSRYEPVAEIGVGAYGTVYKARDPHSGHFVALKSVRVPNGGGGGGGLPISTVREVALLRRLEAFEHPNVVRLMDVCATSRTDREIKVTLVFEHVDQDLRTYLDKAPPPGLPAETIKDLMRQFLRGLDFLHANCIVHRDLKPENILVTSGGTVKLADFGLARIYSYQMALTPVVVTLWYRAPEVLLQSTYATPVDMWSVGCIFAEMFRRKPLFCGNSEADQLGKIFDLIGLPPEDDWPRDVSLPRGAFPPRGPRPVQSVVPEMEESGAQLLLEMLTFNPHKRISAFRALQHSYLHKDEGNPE
Sequence of CDK4/cyclin D1 (P24385 whole entry partner, species assumed): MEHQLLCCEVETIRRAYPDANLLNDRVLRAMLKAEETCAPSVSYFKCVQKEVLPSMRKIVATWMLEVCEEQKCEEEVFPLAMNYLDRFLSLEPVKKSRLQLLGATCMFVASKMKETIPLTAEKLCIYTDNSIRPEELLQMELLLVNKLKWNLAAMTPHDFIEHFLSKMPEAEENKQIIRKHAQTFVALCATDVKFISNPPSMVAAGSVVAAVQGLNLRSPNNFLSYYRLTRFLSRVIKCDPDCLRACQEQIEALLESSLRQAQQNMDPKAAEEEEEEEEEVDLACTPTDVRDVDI
Sequence of CDK6/cyclin D3 (Q00534 whole entry, species assumed): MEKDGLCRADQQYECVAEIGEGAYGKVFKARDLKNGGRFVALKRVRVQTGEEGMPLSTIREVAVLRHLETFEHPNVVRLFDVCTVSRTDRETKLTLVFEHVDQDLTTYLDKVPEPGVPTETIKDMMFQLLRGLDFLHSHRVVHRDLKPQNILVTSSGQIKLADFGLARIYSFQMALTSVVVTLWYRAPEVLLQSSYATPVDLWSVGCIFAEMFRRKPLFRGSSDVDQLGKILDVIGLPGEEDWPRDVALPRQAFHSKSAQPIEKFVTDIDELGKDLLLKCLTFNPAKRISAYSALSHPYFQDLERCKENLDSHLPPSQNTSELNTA
Sequence of CDK6/cyclin D3 (P30281 whole entry partner, species assumed): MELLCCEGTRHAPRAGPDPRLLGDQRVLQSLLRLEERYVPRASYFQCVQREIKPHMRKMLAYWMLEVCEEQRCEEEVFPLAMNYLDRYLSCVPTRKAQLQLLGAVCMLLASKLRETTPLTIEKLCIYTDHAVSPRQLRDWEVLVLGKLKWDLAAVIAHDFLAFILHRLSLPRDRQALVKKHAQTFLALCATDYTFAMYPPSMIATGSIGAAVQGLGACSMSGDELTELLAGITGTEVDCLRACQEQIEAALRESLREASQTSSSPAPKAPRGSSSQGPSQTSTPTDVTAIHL

In the case of `CC(C)n1nnc2ccc3cnc(Nc4ccc(C(=O)N5CC[C@@H](N(C)C)C5)cc4)nc3c21` [Example I-11, (R)-(3-(Dimethylamino)pyrrolidin-1-yl)(4-((1-isopropyl-1H-[1,2,3]triazolo[4,5-H]quinazolin-8-yl)amino)phenyl)metha none], the IC50 in experiment [1] amounted to 29 nM; in experiment [2], 4 nM; in experiment [3], 122 nM; on CDK2/cyclin E, 0.08 nM; against CDK4/cyclin D1 it was 0.7 nM; against CDK6/cyclin D3 it was 6 nM. The IC50 came to 2 nM against CDK9/cyclin T1 and 148 nM in experiment [4].
As for `CC(C)n1nnc2ccc3cnc(Nc4ccc(C(=O)N5CCC(N(C)C)CC5)c(F)c4)nc3c21` [Example I-17, (4-(Dimethylamino)piperidin-1-yl)(2-fluoro-4-((1-isopropyl-1H-[1,2,3]triazolo[4,5-H]quinazolin-8-yl)amino)phenyl)metha none], the IC50 in experiment [1] turned out to be 46 nM; in experiment [2], 12 nM; in experiment [3], 319 nM; at CDK2/cyclin E, 0.8 nM; against CDK4/cyclin D1, 2 nM; against CDK6/cyclin D3, 190 nM. In addition, the IC50 against CDK9/cyclin T1 was 60 nM; in experiment [4], 93 nM.
On to `CC(C)n1nnc2ccc3cnc(Nc4ccc(C(=O)N5CCC(N)CC5)c(F)c4)nc3c21` [Example I-16, (4-Aminopiperidin-1-yl)(2-fluoro-4-((1-isopropyl-1H-[1,2,3]triazolo[4,5-H]quinazolin-8-yl)amino)phenyl)metha none], for which the IC50 in experiment [1] turned out to be 110 nM; in experiment [2], 9 nM; in experiment [3] it was 374 nM; on CDK2/cyclin E, 4 nM; against CDK4/cyclin D1, 12 nM; at CDK6/cyclin D3 it was 230 nM. Also, the IC50 on CDK9/cyclin T1 worked out at 78 nM; in experiment [4], 90 nM.
In the case of `CC(C)n1nnc2ccc3cnc(Nc4ccc(C(=O)N5CCS(=O)(=O)CC5)cc4)nc3c21` [Example I-32, (1,1-Dioxothiomorpholino)(4-((1-isopropyl-1H-[1,2,3]triazolo[4,5-H]quinazolin-8-yl)amino)phenyl)metha none], the IC50 came out at 44 nM in experiment [1]; 9 nM in experiment [2]; 167 nM in experiment [3]; 3 nM at CDK2/cyclin E; 15 nM at CDK4/cyclin D1; 230 nM on CDK6/cyclin D3. The IC50 on CDK9/cyclin T1 was found to be 315 nM; in experiment [4], 80 nM.
For the molecule `CC(C)n1nnc2ccc3cnc(Nc4ccc(C(=O)N5CCN[C@@H](C)C5)cc4)nc3c21` [Example I-20, (S)-(4-((1-Isopropyl-1H-[1,2,3]triazolo[4,5-H]quinazolin-8-yl)amino)phenyl)(3-methylpiperazin-1-yl)methanone], the IC50 is 23 nM in experiment [1]; 6 nM in experiment [2]; 109 nM in experiment [3]; 1 nM on CDK2/cyclin E; 1 nM against CDK4/cyclin D1; 16 nM against CDK6/cyclin D3. The results for the IC50 (at CDK9/cyclin T1; in experiment [4]) were 3 nM and 39 nM, respectively.
As to `CN1CCN(C(=O)c2ccc(Nc3ncc4ccc5nnn([C@@H]6CCC[C@@]6(C)O)c5c4n3)cc2)CC1` [Example I-66, (4-((1-((1R,2R)-2-Hydroxy-2-methylcyclopentyl)-1H-[1,2,3]triazolo[4,5-H]quinazolin-8-yl)amino)phenyl)(4-methylpiperazin-1-yl)methanone], the IC50 in experiment [1] came to 8 nM; in experiment [2], 2 nM; in experiment [3] it was 93 nM; on CDK2/cyclin E, 0.8 nM; against CDK4/cyclin D1 it was 1 nM; against CDK6/cyclin D3, 15 nM. The results for the IC50 (on CDK9/cyclin T1; in experiment [4]) were 6 nM and 17 nM, respectively.
Consider `CC(C)n1nnc2ccc3cnc(Nc4ccc(C(=O)N5CC[C@@H](C)[C@@H](N)C5)cc4)nc3c21` [Example I-12, ((3R,4R)-3-Amino-4-methylpiperidin-1-yl)(4-((1-isopropyl-1H-[1,2,3]triazolo[4,5-H]quinazolin-8-yl)amino)phenyl)metha none], for which the IC50 in experiment [1] was 30 nM; in experiment [2], 6 nM; in experiment [3], 84 nM; at CDK2/cyclin E it was 1 nM; at CDK4/cyclin D1, 3 nM; against CDK6/cyclin D3, 18 nM. Besides, the IC50 in experiment [4] turned out to be 26 nM.
In the case of `CC(C)n1nnc2ccc3cnc(Nc4ccc(C(=O)N5CCN(C)[C@@H](C)C5)cc4)nc3c21` [Example I-28, (S)-(3,4-Dimethylpiperazin-1-yl)(4-((1-isopropyl-1H-[1,2,3]triazolo[4,5-H]quinazolin-8-yl)amino)phenyl)metha none], the IC50 in experiment [1] was 42 nM; in experiment [2], 9 nM; in experiment [3] it was 174 nM; on CDK2/cyclin E it was 2 nM; at CDK4/cyclin D1, 2 nM; against CDK6/cyclin D3 it was 18 nM. For the same molecule, in experiment [4], the IC50 came out at 59 nM.
As for `CC(C)n1nnc2ccc3cnc(Nc4ccc(C(=O)N5CCN(C)[C@H](C)C5)cc4)nc3c21` [Example I-27, (R)-(3,4-Dimethylpiperazin-1-yl)(4-((1-isopropyl-1H-[1,2,3]triazolo[4,5-H]quinazolin-8-yl)amino)phenyl)metha none], the IC50 in experiment [1] was 32 nM; in experiment [2] it was 6 nM; in experiment [3], 186 nM; on CDK2/cyclin E, 2 nM; at CDK4/cyclin D1, 5 nM; against CDK6/cyclin D3 it was 14 nM. For the same molecule, the IC50 in experiment [4] was determined as 69 nM.
For `CC[C@H](Nc1nc(NCc2cnc(C)cc2C)c2ncn(C(C)C)c2n1)[C@@H](C)O` [CYC-065 (Fadraciclib), reference compound], the IC50 is 209 nM in experiment [1]; 171 nM in experiment [2]; 623 nM in experiment [3]; 3 nM at CDK2/cyclin E; 228 nM against CDK4/cyclin D1; above 1000 nM on CDK6/cyclin D3. For the same molecule, the IC50 in experiment [4] was determined as 349 nM.

The values are drawn from EP4711369A1, “1H-[1,2,3]TRIAZOLO[4,5-H]QUINAZOLINE COMPOUNDS AS PROTEIN KINASE INHIBITORS” (Chengdu Cynogen Bio-Pharmaceutical Technology Co., Ltd., priority 2023, dated 2024).
